Laboratory results as given in EP0659438A1, “Conjugates consisting of peptidic T cell antigens and cell binding groups, and their use for therapy” (BOEHRINGER MANNHEIM GMBH, priority 1993, dated 1995).

System: T-cell clone SP2.2
Assay: cells
Assay type: cell-based, human

| SMILES | effect on free peptide induced proliferation | inhibition of conjugate induced proliferation | reduction of P2-induced proliferation | inhibition at 300 µM (Homo sapiens, T-cell, read-out: inhibition of conjugate induced proliferation) |
| --- | --- | --- | --- | --- |
| CC(=O)N[C@@H](CC(C)C)C(=O)N[C@@H](CC(C)C)C(=O)N[C@H](C=O)CCCNC(=N)N [Leupeptin] | almost no effect | can inhibit | – | – |
| CCN(CC)CCCC(C)Nc1ccnc2cc(Cl)ccc12 (centres unmarked) [Chloroquine] | – | can inhibit | 50% | 100% |
